The data set is described as follows: Human HepG2 cell viability assay in 384 well format. In kind it is toxicity, cell-based. The arrangement: dose 125 nL, time 70.5 hour; concentration not given beside the values. Conditions: HepG2 cells, read-out: Inhibition.
As for `O=C(Cc1ccc2c(c1)OCCO2)N1CCN(c2cnccn2)CC1`, the cytotoxicity at 70.5 h is -1.49%.
Regarding `CCc1cnc(C)nc1NCCC(=O)N1CCC(C)CC1`, the cytotoxicity at 70.5 h is -0.743%.
The value for `CCn1nc2c(cc1=O)CN(CCOc1ccccc1C#N)CC2` was -8.44%; that for `CNc1nc(N2CCN(C)C(CCO)C2)nc2c1CCC2` (stereo unspecified) was 2.44%.
The value for `CC(CNC(=O)c1nnn(-c2ccccc2)c1C(F)(F)F)N(C)C` (stereo unspecified) was -8.59%.
The value for `c1ccc2oc(CCCN3CCCC3Cn3cncn3)nc2c1` (stereo unspecified) was -15.6%; that for `Cc1cc(NCCC(=O)NC2CCCC2)nc(-c2ccncc2)n1` was 0.777%; that for `COCC1CC2(CCN(Cc3cnn(C)c3)CC2)CN1c1ncccn1` (stereo unspecified) was -10.8%.
Turning to `Cc1ncncc1C(=O)N1C[C@H]2CC[C@@H]1CN(C(=O)c1ccncc1)C2`, the cytotoxicity at 70.5 h is -0.209%.
As to `CC(=O)N1CCC(CSCc2ccco2)CC1`, the cytotoxicity at 70.5 h was 12.9%.
Next, `N#Cc1ccccc1N1CCCN(C(=O)NCc2cc[nH]n2)CC1`: -6.85%.
The value for `CNCCCNC1CCN(c2ccc(-n3ccnc3)cc2)CC1` was -7.26%.
The value for `COc1ccccc1COCC(O)CN(C)Cc1cccc(Cl)c1` (stereo unspecified) was -23.5%; that for `CN(Cc1ccccn1)C1CCC[C@@H]2CN(CC3CC3)C[C@H]12` (stereo partly specified) was 17.7%.
For `CN(C)CCCNC(=O)c1cc(-c2ccc3c(c2)CCO3)n[nH]1`, the cytotoxicity at 70.5 h turned out to be 10.7%.
The value for `CCCNc1ncc(CN2CCC3(CC2)CNC(=O)C3)cn1` was 12.6%.
As for `COCCOCC(=O)Nc1ccc(Br)cc1F`, the cytotoxicity at 70.5 h was -11%.
Turning to `CC1(C(=O)NC2CCCC2)CCCN(c2cnccn2)C1` (stereo unspecified), the cytotoxicity at 70.5 h is -6.96%.
Regarding `Cc1cnc(N2CCC3(CC2)CN(Cc2cccs2)CCO3)nc1`, the cytotoxicity at 70.5 h was -8.99%.
As for `O=C(Cc1ccccn1)N1CCN2C[C@H](OCCN3CCCC3)C[C@H]2C1`, the cytotoxicity at 70.5 h came out at 19.7%.
As to `CN1CC[C@H](N(Cc2ccccc2)C2COC2)C[C@H](O)C1`, the cytotoxicity at 70.5 h is -6.77%.
Next, `O=C(NCCC1COc2ccccc2O1)c1ccc(N2CC(O)C2)nc1` (stereo unspecified): -6.19%; `CCSc1ccccc1C(=O)N(CCOC)Cc1ccoc1`: 25%; `Cc1ccc(CN(C(=O)NCC2CCCO2)C2CC2)o1` (stereo unspecified): -9.69%.
Next, `CN(C)C(=O)Cn1c2c(ccc1=O)CCN(Cc1cnn(C)c1)CC2`: 2.17%; `CC(C)CN1CC[C@@H]2[C@@H]1CCN2S(=O)(=O)c1cn(C)cn1`: -10.9%; `CCOc1ncccc1NC(=O)N1CCN(CC(=O)NC)CC1`: -8.56%.
The value for `N#CCCN(C(=O)CN1CCCC1c1ccsc1)c1ccccc1` (stereo unspecified) was 20.9%; that for `CCCn1nccc1C(=O)Nc1ncc(C)s1` was -11.3%; that for `Cc1cc(N(C)Cc2ncc(-c3ccccc3C(=O)O)s2)ncn1` was 16.7%.
For the molecule `CCOc1ccccc1CC(=O)N1C[C@@H](C(=O)O)[C@H](C2CC2)C1`, the cytotoxicity at 70.5 h is -1.88%.
Take `CN(C)Cc1cc(CC2(NCc3ccccc3Cl)COC2)no1`: the cytotoxicity at 70.5 h is -2.7%.
`CS(=O)(=O)Cc1noc(CN2CCc3c(Cl)cccc3C2)n1`: the cytotoxicity at 70.5 h is -79.4%.
The value for `CNc1cc(CNC(=O)c2ccccc2OC)nc(-c2ccncc2)n1` was 12.5%; that for `Fc1cnc(N2C[C@@H](OCC3CCOCC3)[C@H]3OCCC[C@H]32)nc1` was -7.94%; that for `c1cncc(CN2CCC(c3csc4nccn34)CC2)c1` was -4.71%.
With `CCOc1cc(C)nc(N2CCN(Cc3nccn3CC)CC2)n1`, the cytotoxicity at 70.5 h turned out to be 7.28%.
The value for `O=C(O)C1(Cc2cc(-c3ccccc3F)no2)CCOCC1` was -10.6%; that for `CN(C1CCCCC1)S(=O)(=O)NC1CCCN(c2ncccn2)C1` (stereo unspecified) was -8.05%.
The value for `COC(=O)c1ccc2ccn(CC3CCCCO3)c(=O)c2c1` (stereo unspecified) was -4.76%.
As for `COc1ccc(NC(=O)C2CC2)cc1OCc1cccnc1`, the cytotoxicity at 70.5 h is 23%.
For `CN1CCC(CN2CCC3(CCCN(Cc4ccoc4)C3)C2=O)CC1` (stereo unspecified), the cytotoxicity at 70.5 h is -10.7%.
For `COCc1c(C(=O)O)nnn1Cc1cccc(C(F)(F)F)c1`, the cytotoxicity at 70.5 h is -18.5%.
Next, `COCC(=O)N1CCCC(C)(c2nncn2C)C1` (stereo unspecified): -14.6%; `Cc1ncc2c(n1)CN(Cc1nc(-c3ccsc3)oc1C)CC2`: -15.2%.
On to `O=C(c1ccco1)N1C[C@H]2CCCN(Cc3ccoc3)[C@H]2C1`, for which the cytotoxicity at 70.5 h was -9.66%.
For `CCNC(=O)CCC(=O)NC1(c2cccc(Br)c2)CC1`, the cytotoxicity at 70.5 h was -2.97%.
On to `COCc1nc2cc(NCc3scnc3C)ccc2o1`, for which the cytotoxicity at 70.5 h was -5.1%.
Turning to `COc1cccc(OCC2CCCN(C(=O)Cc3cccc(O)c3)C2)c1` (stereo unspecified), the cytotoxicity at 70.5 h was -11.3%.
With `CC(C)n1ncc2cc(NC(=O)N3CCC(C(N)=O)C3)cnc21` (stereo unspecified), the cytotoxicity at 70.5 h is 16.7%.
On to `CCc1n[nH]c(C2CN(C(=O)COCC(F)(F)F)CCO2)n1` (stereo unspecified), for which the cytotoxicity at 70.5 h is -10.6%.
On to `CC(C)CCC(=O)N1CCN(c2ncnc3nc(N)ccc23)CC1`, for which the cytotoxicity at 70.5 h is -6.9%.
For `CC(C)(NC(=O)c1ccc(-c2ccc(F)cc2)s1)C(N)=O`, the cytotoxicity at 70.5 h came out at 4.62%.
The value for `CC[C@H]1NCCC[C@]12CCC(=O)N2Cc1ccncc1` was -0.708%; that for `Cc1ncsc1CCN(C)Cc1cc2n(n1)CCN(Cc1ncc[nH]1)C2` was 47.1%.
The value for `N#Cc1ncn(CCS(=O)(=O)c2ccc(Br)cc2)n1` was 4.43%; that for `CNS(=O)(=O)CCCn1nnc(-c2ccc(F)c(C)c2)n1` was -3.63%; that for `CCOCC1CN(Cc2ccc(OC)cc2)Cc2nn(C)cc21` (stereo unspecified) was 25.5%.
Regarding `CC(C)c1ncc2c(n1)CN(CC(=O)Nc1ccncc1)CC2`, the cytotoxicity at 70.5 h was -7.98%.
Regarding `Cc1ccc([C@]2(O)CC[C@H]3CN(Cc4cccc(Cl)c4Cl)C[C@H]32)nc1`, the cytotoxicity at 70.5 h was 22.9%.
For `COCCNC(=O)CN1CC=C(n2c(C)nc(=O)c3ccccc32)CC1`, the cytotoxicity at 70.5 h was found to be 0.895%.
Turning to `CC(O)Cc1cn(CC2CCN(C3CCSCC3)CC2)nn1` (stereo unspecified), the cytotoxicity at 70.5 h is -4.31%.
In the case of `CCn1nc2c(cc1=O)CN(Cc1nnc(C3CC3)o1)CC2`, the cytotoxicity at 70.5 h is 2.46%.
For `Cn1c(C(F)(F)F)nn(CCNC(=O)NCc2ccccc2)c1=O`, the cytotoxicity at 70.5 h came to 16.5%.
The value for `NC(=O)CNC(=O)c1ccc(CNCc2ccc(Cl)cc2Cl)cc1` was -28%; that for `CN(C)c1cccc(C(=O)N2CCCSCC2CN2CCCC2)c1` (stereo unspecified) was 3.97%; that for `CCS(=O)(=O)N1CCN(C(=O)c2ccc(Cn3cc(Br)cn3)cc2)CC1` was -6.35%.
The value for `Cc1nsc(NC2CC(=O)N(C(C)(C)C)C2)n1` (stereo unspecified) was 11.5%; that for `Cc1noc(C2CCC3(CCN(C(=O)C4=CCCCC4)CC3)O2)n1` (stereo unspecified) was -6.87%; that for `COC(=O)C1CN(Cc2ccn(-c3ccc(F)cc3)n2)C[C@@H](C)O1` (stereo partly specified) was 21.2%.
As to `Cc1nc(N2CCOCC2)nc2c1CCN(Cc1cccnc1)CC2`, the cytotoxicity at 70.5 h is -17.8%.
